Experimental findings from PubChem BioAssay AID1745844 (Carcinogenic Potency Database (CPDB), 2022) are described below.

The data set deals with rodent lifetime carcinogenesis bioassay, tumor incidence TD50. Put plainly: chronic cancer bioassays in animals – CPDB, compiled studies (AID 1745844).

The source made the active and inactive calls. How the calls were made is not given here.

Broadly, the TD50 is the 50% point of the dose-response relation for the toxic effect studied. Regarding `O=Cc1ccco1`, the carcinogen call (hamster, strain Syrian Golden, females, inhaled, site: liver, lesion: one or several types, types not named, dosed 52 weeks, study length 81 weeks) was “negative (inactive)”; the carcinogen call (hamster, strain Syrian Golden, females, inhaled, site: lung, lesion: one or several types, types not named, dosed 52 weeks, study length 81 weeks) was “negative (inactive)”; the carcinogen call (hamster, strain Syrian Golden, males, inhaled, site: liver, lesion: one or several types, types not named, dosed 52 weeks, study length 81 weeks) was “negative (inactive)”; the carcinogen call (hamster, strain Syrian Golden, males, inhaled, site: lung, lesion: one or several types, types not named, dosed 52 weeks, study length 81 weeks) was “negative (inactive)”. Also, the TD50 runs as follows: (mouse, strain B6C3F1, females, by gavage, site: forestomach, lesion: squamous-cell papilloma, dosed 103 weeks, study length 104 weeks) 920 mg/kg/day; (mouse, strain B6C3F1, females, by gavage, site: liver, lesion: hepatocellular adenoma + hepatocellular carcinoma + neoplastic nodule, dosed 103 weeks, study length 104 weeks) 377 mg/kg/day; (mouse, strain B6C3F1, females, by gavage, site: liver, lesion: hepatocellular adenoma + hepatocellular carcinoma, dosed 103 weeks, study length 104 weeks) 377 mg/kg/day; (mouse, strain B6C3F1, females, by gavage, site: liver, lesion: hepatocellular adenoma, dosed 103 weeks, study length 104 weeks) 364 mg/kg/day; (mouse, strain B6C3F1, males, by gavage, site: any site (literature study), lesion: several types, types named in the paper, dosed 103 weeks, study length 104 weeks) 165 mg/kg/day; (mouse, strain B6C3F1, males, by gavage, site: kidney cortex, lesion: adenoma + carcinoma, dosed 103 weeks, study length 104 weeks) 1400 mg/kg/day. Besides, the TD50 reads like this: (mouse, strain B6C3F1, males, by gavage, site: liver, lesion: hepatocellular adenoma + hepatocellular carcinoma + neoplastic nodule, dosed 103 weeks, study length 104 weeks) 135 mg/kg/day; (mouse, strain B6C3F1, males, by gavage, site: liver, lesion: hepatocellular adenoma + hepatocellular carcinoma, dosed 103 weeks, study length 104 weeks) 135 mg/kg/day; (mouse, strain B6C3F1, males, by gavage, site: liver, lesion: hepatocellular adenoma, dosed 103 weeks, study length 104 weeks) 207 mg/kg/day; (mouse, strain B6C3F1, males, by gavage, site: liver, lesion: hepatocellular carcinoma, dosed 103 weeks, study length 104 weeks) 219 mg/kg/day; (mouse, strain B6C3F1, males, by gavage, site: lung, lesion: alveolar/bronchiolar adenoma + alveolar/bronchiolar carcinoma, dosed 103 weeks, study length 104 weeks) 662 mg/kg/day; (mouse, strain B6C3F1, males, by gavage, site: subcutaneous tissue, lesion: fibrosarcoma + fibroma + sarcoma, dosed 103 weeks, study length 104 weeks) 169 mg/kg/day. Also, the TD50 is 190 mg/kg/day (mouse, strain B6C3F1, males, by gavage, site: subcutaneous tissue, lesion: fibrosarcoma + fibroma, dosed 103 weeks, study length 104 weeks); 187 mg/kg/day (mouse, strain B6C3F1, males, by gavage, site: subcutaneous tissue, lesion: fibrosarcoma + sarcoma, dosed 103 weeks, study length 104 weeks); 212 mg/kg/day (mouse, strain B6C3F1, males, by gavage, site: subcutaneous tissue, lesion: fibrosarcoma, dosed 103 weeks, study length 104 weeks); 194 mg/kg/day (inactive) (rat, strain Fischer 344, females, by gavage, site: any site (literature study), lesion: several types, types named in the paper, dosed 103 weeks, study length 105 weeks); 150 mg/kg/day (rat, strain Fischer 344, males, by gavage, site: any site (literature study), lesion: several types, types named in the paper, dosed 103 weeks, study length 105 weeks); 683 mg/kg/day (rat, strain Fischer 344, males, by gavage, site: liver, lesion: cholangiocarcinoma, dosed 103 weeks, study length 105 weeks).
`CN(N=O)C(=O)c1ccccc1`: the TD50 (rat, strain MRC-Wistar, females, in drinking water, site: any site (literature study), lesion: several types, types named in the paper, dosed 52 weeks, study length 130 weeks) was 11.2 mg/kg/day; the TD50 (rat, strain MRC-Wistar, males, in drinking water, site: any site (literature study), lesion: several types, types named in the paper, dosed 52 weeks, study length 130 weeks) was found to be 2.49 mg/kg/day; the TD50 (rat, strain MRC-Wistar, males, in drinking water, site: forestomach, lesion: several types, types named in the paper, dosed 52 weeks, study length 130 weeks) is 3.23 mg/kg/day; the TD50 (rat, strain MRC-Wistar, males, in drinking water, site: forestomach, lesion: squamous-cell carcinoma, dosed 52 weeks, study length 130 weeks) was 9.66 mg/kg/day; the TD50 (rat, strain MRC-Wistar, males, in drinking water, site: forestomach, lesion: squamous-cell papilloma, dosed 52 weeks, study length 130 weeks) was 7.73 mg/kg/day. The carcinogen call is, setting by setting: (rat, strain MRC-Wistar, females, in drinking water, site: liver, lesion: one or several types, types not named, dosed 52 weeks, study length 130 weeks) “negative (inactive)”; (rat, strain MRC-Wistar, males, in drinking water, site: liver, lesion: one or several types, types not named, dosed 52 weeks, study length 130 weeks) “negative (inactive)”.
As to `Cc1ccc2ncccc2c1`, the TD50 is 230 mg/kg/day (inactive) (rat, strain Fischer 344, females, in feed, site: liver, lesion: hyperplastic nodule, dosed 104 weeks, study length 104 weeks) and 123 mg/kg/day (inactive) (rat, strain Fischer 344, males, in feed, site: liver, lesion: hyperplastic nodule, dosed 104 weeks, study length 104 weeks).
As to `CNC[C@H](O)c1ccc(O)c(O)c1`, the TD50 by setting is: (mouse, strain B6C3F1, females, inhaled, site: liver, lesion: hepatocellular adenoma + hepatocellular carcinoma + neoplastic nodule, dosed 104 weeks, study length 107 weeks) 9.74 mg/kg/day; (mouse, strain B6C3F1, females, inhaled, site: uterus, lesion: endometrial stromal polyp + endometrial stromal sarcoma, dosed 104 weeks, study length 107 weeks) 6.86 mg/kg/day; (mouse, strain B6C3F1, females, inhaled, site: uterus, lesion: endometrial stromal polyp, dosed 104 weeks, study length 107 weeks) 8.52 mg/kg/day; (rat, strain Fischer 344, males, inhaled, site: any site (literature study), lesion: several types, types named in the paper, dosed 103 weeks, study length 105 weeks) 4.7 mg/kg/day.
With `NNC(=O)c1cccnc1`, the carcinogen call was “negative (inactive)” (mouse, strain Swiss albino, females, in drinking water, site: liver, lesion: angioma, dosed 102 weeks, study length 102 weeks); “negative (inactive)” (mouse, strain Swiss albino, females, in drinking water, site: liver, lesion: angiosarcoma, dosed 102 weeks, study length 102 weeks); “negative (inactive)” (mouse, strain Swiss albino, males, in drinking water, site: liver, lesion: angioma, dosed 101 weeks, study length 101 weeks); “negative (inactive)” (mouse, strain Swiss albino, males, in drinking water, site: liver, lesion: angiosarcoma, dosed 101 weeks, study length 101 weeks). The TD50 (mouse, strain Swiss albino, females, in drinking water, site: lung, lesion: adenocarcinoma, dosed 102 weeks, study length 102 weeks) was found to be 511 mg/kg/day; the TD50 (mouse, strain Swiss albino, females, in drinking water, site: lung, lesion: adenoma, dosed 102 weeks, study length 102 weeks) came to 181 mg/kg/day; the TD50 (mouse, strain Swiss albino, females, in drinking water, site: lung, lesion: several types, types named in the paper, dosed 102 weeks, study length 102 weeks) is 145 mg/kg/day; the TD50 (mouse, strain Swiss albino, males, in drinking water, site: liver, lesion: hepatoma, dosed 101 weeks, study length 101 weeks) is 1410 mg/kg/day (inactive); the TD50 (mouse, strain Swiss albino, males, in drinking water, site: lung, lesion: adenoma, dosed 101 weeks, study length 101 weeks) is 428 mg/kg/day; the TD50 (mouse, strain Swiss albino, males, in drinking water, site: lung, lesion: several types, types named in the paper, dosed 101 weeks, study length 101 weeks) is 528 mg/kg/day.
Consider `CN[C@H]1CC[C@@H](c2ccc(Cl)c(Cl)c2)c2ccccc21`, for which the TD50 was 247 mg/kg/day (inactive) (mouse, strain Charles River CD1, females, in feed, site: lung, lesion: alveolar/bronchiolar adenoma, dosed 104 weeks, study length 104 weeks); 147 mg/kg/day (mouse, strain Charles River CD1, males, in feed, site: liver, lesion: hepatocellular adenoma, dosed 104 weeks, study length 104 weeks); 425 mg/kg/day (mouse, strain Charles River CD1, males, in feed, site: liver, lesion: hepatocellular carcinoma, dosed 104 weeks, study length 104 weeks); 352 mg/kg/day (inactive) (rat, strain Long-Evans, females, in feed, site: thyroid gland, lesion: follicular-cell adenoma, dosed 104 weeks, study length 104 weeks).
For `CC1CN(N=O)CC(C)N1N=O` (stereo not drawn), the TD50 reads like this: (hamster, strain Syrian Golden, males, by gavage, site: any site (literature study), lesion: several types, types named in the paper, dosed 35 weeks, study length 76 weeks) 0.932 mg/kg/day; (hamster, strain Syrian Golden, males, by gavage, site: forestomach, lesion: papilloma, dosed 35 weeks, study length 76 weeks) 3.1 mg/kg/day; (hamster, strain Syrian Golden, males, by gavage, site: liver, lesion: angiosarcoma, dosed 35 weeks, study length 76 weeks) 8.3 mg/kg/day; (hamster, strain Syrian Golden, males, by gavage, site: lung, lesion: adenoma, dosed 35 weeks, study length 76 weeks) 6.04 mg/kg/day.
